Source: patent publication US5217960A, “Erythromycin derivatives” (priority 1991, dated 1993)
Converted amounts (≈) assume the structure as drawn. Read-outs that look alike come from different tables or passages of the source.

Tests used:
Format in all cases: cell-based
[1] = test system: PROVIDENCIA STUARTII CMX 640; assay: microbe, parasite or virus in culture; conditions: P. stuartii CMX 640, BHI agar, 35-37° C., 20 to 24 hours
[2] = test system: ENTEROBACTER AEROGENES ATCC 13048; assay: In vitro antibacterial activity, agar dilution MIC; conditions: Klebsiella aerogenes, ATCC13048; E. aerogenes ATCC 13048; BHI agar, 35-37° C., 20 to 24 hours; read-out: MIC
[3] = test system: STAPHYLOCOCCUS AUREUS 1775; assay: In vitro antibacterial activity, agar dilution MIC
[4] = test system: ACINETOBACTER CALCOACETICUS CMX 669; assay: In vitro antibacterial activity, agar dilution MIC; conditions: A. calcoaceticus CMX 669, BHI agar, 35-37° C., 20 to 24 hours
[5] = test system: STREPTOCOCCUS BOVIS A5169; assay: In vitro antibacterial activity, agar dilution MIC; conditions: S. bovis A5169; BHI agar, 35-37° C., 20 to 24 hours; read-out: MIC
[6] = test system: STREPTOCOCCUS PYOGENES 2548 INDUC; assay: In vitro antibacterial activity, agar dilution MIC; conditions: S. pyogenes 2548 INDUC, BHI agar, 35-37° C., 20 to 24 hours, read-out: MIC
ESCHERICHIA COLI H560 = assay: In vitro antibacterial activity, agar dilution MIC; conditions: E. coli H560, BHI agar, 35-37° C., 20 to 24 hours, read-out: MIC
[7] = test system: STAPHYLOCOCCUS AUREUS CMX 553; assay: In vitro antibacterial activity, agar dilution MIC
EN[…] ATCC 8043 = assay: In vitro antibacterial activity, agar dilution MIC; conditions: Enterococcus faecium, ATCC8043, 24 h
Description: (§1) Representative compounds of the present invention were assayed in vitro for antibacterial activity as follows: Twelve petri dishes containing successive aqueous dilutions of the test compound mixed with 10 ml of sterilized Brain Heart Infusion (BHI) agar (Difco 0418-01-5) were prepared. Each plate was inoculated with 1:100 (or 1:10 for slow-growing strains, such as Micrococcus and Streptococcus) dilutions of up to 32 different microorganisms, using a Steers replicator block. The inoculated plates were incubated at 35°-37° C. for 20 to 24 hours. In addition, a control plate, using BHI agar containing no test compound, was prepared and incubated at the beginning and end of each test.
(§2) An additional plate containing a compound having known susceptibility patterns for the organisms being tested and belonging to the same antibiotic class as the test compound was also prepared and incubated as a further control, as well as to provide test-to-test comparability. Erythromycin A was used for this purpose.
(§3) After incubation, each disk was read. The minimum inhibitory concentration (MIC) was defined as the lowest concentration of drug yielding no growth, a slight haze, or sparsely isolated colonies on the inoculum spot as compared to the growth control. The results of this assay, shown below in Tables 1 and 2, support the conclusion that the compounds of the invention are effective antibacterial agents.

M[…] ATCC 4698 = assay: In vitro antibacterial activity, agar dilution MIC; conditions: Micrococcus luteus, ATCC4698, 24 h
Description: as §1, §2, §3

M[…] ATCC 9341 = assay: In vitro antibacterial activity, agar dilution MIC; conditions: Micrococcus luteus, ATCC9341, 24 h
Description: as §1, §2, §3

[8] = test system: PSEUDOMONAS AERUGINOSA K799/61; assay: In vitro antibacterial activity, agar dilution MIC; conditions: 24 h
Description: as §1, §2, §3

ESCHERICHIA COLI DC-2 = assay: In vitro antibacterial activity, agar dilution MIC; conditions: E. coli DC-2, BHI agar, 35-37° C., 20 to 24 hours, read-out: MIC
PSEUDOMONAS CEPACIA 296I = assay: In vitro antibacterial activity, agar dilution MIC; conditions: Burkholderia cepacia
[9] = test system: STAPHYLOCOCCUS AUREUS 642A; assay: In vitro antibacterial activity, agar dilution MIC; conditions: 24 h
[10] = test system: STREPTOCOCCUS PYOGENES 930 CONST; assay: In vitro antibacterial activity, agar dilution MIC; conditions: 24 h
[11] = test system: KLEBSIELLA PNEUMONIAE ATCC 8045; assay: In vitro antibacterial activity, agar dilution MIC; conditions: ATCC8045, K. pneumoniae ATCC 8045, BHI agar, 35-37° C., 20 to 24 hours, read-out: MIC
STAPHYLOCOCCUS AUREUS 45 = assay: In vitro antibacterial activity, agar dilution MIC
[12] = test system: PSEUDOMONAS AERUGINOSA BMH10; assay: In vitro antibacterial activity, agar dilution MIC; conditions: P. aeruginosa BMH10, BHI agar, 35-37° C., 20 to 24 hours, read-out: MIC
ESCHERICHIA COLI JUHL = assay: microbe, parasite or virus in culture
[13] = test system: STAPHYLOCOCCUS EPIDERMIDIS 3519; assay: microbe, parasite or virus in culture; conditions: S. epidermidis 3519, BHI agar, 35-37° C., 20 to 24 hours, read-out: MIC
[14] = test system: STAPHYLOCOCCUS AUREUS A5177; assay: In vitro antibacterial activity, agar dilution MIC; conditions: S. aureus A5177, BHI agar, 35-37° C., 20 to 24 hours, read-out: MIC
[15] = test system: STAPHYLOCOCCUS AUREUS NCTC 10649; assay: In vitro antibacterial activity, agar dilution MIC
[16] = test system: PSEUDOMONAS AERUGINOSA A5007; assay: In vitro antibacterial activity, agar dilution MIC; conditions: P. aeruginosa A5007, BHI agar, 35-37° C., 20 to 24 hours
[17] = test system: PSEUDOMONAS AERUGINOSA K799/WT; assay: In vitro antibacterial activity, agar dilution MIC; conditions: P. aeruginosa K799/WT, BHI agar, 35-37° C., 20 to 24 hours
ESCHERICHIA COLI KNK 437 = assay: microbe, parasite or virus in culture
ESCHERICHIA COLI SS = assay: In vitro antibacterial activity, agar dilution MIC; conditions: E. coli SS, BHI agar, 35-37° C., 20 to 24 hours, read-out: MIC
[18] = test system: STAPHYLOCOCCUS AUREUS ATCC 6538P; assay: In vitro antibacterial activity, agar dilution MIC; conditions: ATCC6538P, 24 h
STR[…] 508 = assay: In vitro antibacterial activity, agar dilution MIC; conditions: Streptococcus agalactiae, 24 h
Description: as §1, §2
(§4) After incubation, each disk was read. The minimum inhibitory concentration (MIC) was defined as the lowest concentration of drug yielding no growth, a slight haze, or sparsely isolated colonies on the inoculum spot as compared to the growth control.

STR[…] EES61 = assay: In vitro antibacterial activity, agar dilution MIC; conditions: Streptococcus pyogenes, 24 h
Description: as §1, §2, §4

CC[C@H]1OC(=O)[C@H](C)[C@@H](O[C@H]2C[C@@](C)(OC)[C@@H](O)[C@H](C)O2)[C@H](C)[C@@H](O[C@@H]2O[C@H](C)C[C@H](N(C)C)[C@H]2O)[C@](C)(O)C[C@@H](C)[C@@H](N)[C@H](C)[C@@H](O)[C@@]1(O)CN [Compound 15, (9R)-9,21-diamino-9-deoxo-erythromycin A]
MIC [1]: > 100 µg/mL | MIC [2]: > 100 µg/mL | MIC ([3]; S. aureus 1775, BHI agar, 35-37° C., 20 to 24 hours, read-out: MIC): 100 µg/mL (≈ 133 µM) | MIC [4]: > 100 µg/mL | MIC [5]: 100 µg/mL (≈ 133 µM) | MIC [6]: > 100 µg/mL | MIC (ESCHERICHIA COLI H560): > 100 µg/mL | MIC ([7]; S. aureus CMX 553, BHI agar, 35-37° C., 20 to 24 hours, read-out: MIC): 100 µg/mL (≈ 133 µM) | MIC (EN[…] ATCC 8043): 12.5 µg/mL (≈ 16.7 µM) | MIC (M[…] ATCC 4698): 12.5 µg/mL (≈ 16.7 µM) | MIC (M[…] ATCC 9341): 50 µg/mL (≈ 66.7 µM) | MIC [8]: > 100 µg/mL | MIC (ESCHERICHIA COLI DC-2): 3.1 µg/mL (≈ 4.13 µM) | MIC (PSEUDOMONAS CEPACIA 296I; P. cepacia 296I, BHI agar, 35-37° C., 20 to 24 hours, read-out: MIC): 100 µg/mL (≈ 133 µM) | MIC [9]: 12.5 µg/mL (≈ 16.7 µM) | MIC [10]: 12.5 µg/mL (≈ 16.7 µM) | MIC [11]: > 100 µg/mL | MIC (STAPHYLOCOCCUS AUREUS 45; S. aureus 45, BHI agar, 35-37° C., 20 to 24 hours, read-out: MIC): 100 µg/mL (≈ 133 µM) | MIC [12]: > 100 µg/mL | MIC (ESCHERICHIA COLI JUHL; E. coli JUHL, BHI agar, 35-37° C., 20 to 24 hours, read-out: MIC): 100 µg/mL (≈ 133 µM) | MIC [13]: > 100 µg/mL | MIC [14]: > 100 µg/mL | MIC ([15]; NCTC10649, S. aureus NCTC 10649, BHI agar, 35-37° C., 20 to 24 hours, read-out: MIC): 100 µg/mL (≈ 133 µM) | MIC [16]: > 100 µg/mL | MIC [17]: > 100 µg/mL | MIC (ESCHERICHIA COLI KNK 437; E. coli KNK 437, BHI agar, 35-37° C., 20 to 24 hours): 100 µg/mL (≈ 133 µM) | MIC (ESCHERICHIA COLI SS): > 100 µg/mL | MIC [18]: 25 µg/mL (≈ 33.3 µM) | MIC (STR[…] 508): 12.5 µg/mL (≈ 16.7 µM) | MIC (STR[…] EES61): 25 µg/mL (≈ 33.3 µM)

CC[C@H]1OC(=O)[C@H](C)[C@@H](O[C@H]2C[C@@](C)(OC)[C@@H](O)[C@H](C)O2)[C@H](C)[C@@H](O[C@@H]2O[C@H](C)C[C@H](N(C)C)[C@H]2O)[C@](C)(O)C[C@@H](C)[C@@H](N(C)C)[C@H](C)[C@@H](O)[C@@]1(O)CN(C)Cc1ccccc1 [Compound 16, (9R)-21-(N-benzyl-N-methylamino)-9-deoxo-9-(N,N-dimethylamino)-erythromycinA]
MIC [1]: 100 µg/mL (≈ 113 µM) | MIC [2]: 100 µg/mL (≈ 113 µM) | MIC ([3]; 24 h): 12.5 µg/mL (≈ 14.2 µM) | MIC [4]: > 100 µg/mL | MIC [5]: 1.56 µg/mL (≈ 1.77 µM) | MIC [6]: 50 µg/mL (≈ 56.7 µM) | MIC (ESCHERICHIA COLI H560): 100 µg/mL (≈ 113 µM) | MIC ([7]; 24 h): 12.5 µg/mL (≈ 14.2 µM) | MIC (EN[…] ATCC 8043): 3.1 µg/mL (≈ 3.51 µM) | MIC (M[…] ATCC 4698): 0.39 µg/mL (≈ 0.442 µM) | MIC (M[…] ATCC 9341): 6.2 µg/mL (≈ 7.03 µM) | MIC [8]: > 100 µg/mL | MIC (ESCHERICHIA COLI DC-2): 1.56 µg/mL (≈ 1.77 µM) | MIC (PSEUDOMONAS CEPACIA 296I; 24 h): 12.5 µg/mL (≈ 14.2 µM) | MIC [9]: 3.1 µg/mL (≈ 3.51 µM) | MIC [10]: 0.78 µg/mL (≈ 0.884 µM) | MIC [11]: > 100 µg/mL | MIC (STAPHYLOCOCCUS AUREUS 45; 24 h): 6.2 µg/mL (≈ 7.03 µM) | MIC [12]: > 100 µg/mL | MIC (ESCHERICHIA COLI JUHL; 24 h): 12.5 µg/mL (≈ 14.2 µM) | MIC [13]: > 100 µg/mL | MIC [14]: > 100 µg/mL | MIC ([15]; NCTC10649, 24 h): 12.5 µg/mL (≈ 14.2 µM) | MIC [16]: 100 µg/mL (≈ 113 µM) | MIC [17]: > 100 µg/mL | MIC (ESCHERICHIA COLI KNK 437; 24 h): 50 µg/mL (≈ 56.7 µM) | MIC (ESCHERICHIA COLI SS): 100 µg/mL (≈ 113 µM) | MIC [18]: 12.5 µg/mL (≈ 14.2 µM) | MIC (STR[…] 508): 0.1 µg/mL (≈ 0.113 µM) | MIC (STR[…] EES61): 0.39 µg/mL (≈ 0.442 µM)
